ChEMBL document CHEMBL5385855, “Design and synthesis of hederagenin derivatives modulating STING/NF-κB signaling for the relief of acute liver injury in septic mice” (2023)
The source made the active and inactive calls. No cut-off for these calls is given here.

Columns and labels:
RAW264.7 [1] = test: Cytotoxicity against mouse RAW264.7 cells assessed as reduction in cell viability at 40 uM incubated for 4 hrs by MTT assay; type: functional
RAW264.7 [2] = test: Antiinflammatory activity in mouse RAW264.7 cells assessed as inhibition of LPS-induced NO production at 20 uM preincubated with compound for 2 hrs followed by LPS stimulation and measured after 24 hrs by Griess reagent based analysis; type: functional, cell-based; details: time 26.0 hrs
Mus musculus [3] = test: In-vivo inhibition of STING/IRF3/NF-kappaB activation in liver septic mouse model assessed as reduction in IRF3 phosphorylation at 1 to 9 mg/kg, ip pretreated with compound for 3 days followed by LPS-induction and measured after 2 hrs by Western blotting analysis; type: functional, organism-based; details: dose 1-9 mg/kg, time 74.0 hrs
Mus musculus [4] = test: Antiinflammatory activity against LPS-induced liver injury BALB/c mouse model assessed as reduction in ALP level in serum at 1 to 9 mg/kg, ip pretreated with compound for 3 days followed by LPS-induction and measured after 12 hrs; type: functional, organism-based; details: dose 1-9 mg/kg, time 3.5 day
Mus musculus [5] = test: Antiinflammatory activity against LPS-induced liver injury BALB/c mouse model assessed as reduction in TNF-alpha level in liver at 1 to 9 mg/kg, ip pretreated with compound for 3 days followed by LPS-induction and measured after 12 hrs; type: functional, organism-based; details: dose 1-9 mg/kg, time 3.5 day
Mus musculus [6] = test: In-vivo inhibition of STING/IRF3/NF-kappaB activation in liver septic mouse model assessed as reduction in IkappaB-alpha phosphorylation at 1 to 9 mg/kg, ip pretreated with compound for 3 days followed by LPS-induction and measured after 2 hrs by Western blotting analysis; type: functional, organism-based; details: dose 1-9 mg/kg, time 74.0 hrs
Mus musculus [7] = test: Antiinflammatory activity against LPS-induced liver injury BALB/c mouse model assessed as reduction in IL-6 level in liver at 1 to 9 mg/kg, ip pretreated with compound for 3 days followed by LPS-induction and measured after 12 hrs; type: functional, organism-based; details: dose 1-9 mg/kg, time 3.5 day
[8] = target: T1, Stimulator of interferon genes protein (Mus musculus) (UniProt Q3TBT3); test: Activation of STING signaling pathway in mouse RAW264.7 cells assessed as inhibition of LPS-induced IkappaB-alpha phosphorylation at 2.5 to 10 uM pretreated with compound for 2 hrs followed by LPS-induction and measured after 6 hrs by Western blot analysis; type: cell-based; details: filed as activator, dose 2.5-10 µM, time 8.0 hrs
T1 sequence (whole entry): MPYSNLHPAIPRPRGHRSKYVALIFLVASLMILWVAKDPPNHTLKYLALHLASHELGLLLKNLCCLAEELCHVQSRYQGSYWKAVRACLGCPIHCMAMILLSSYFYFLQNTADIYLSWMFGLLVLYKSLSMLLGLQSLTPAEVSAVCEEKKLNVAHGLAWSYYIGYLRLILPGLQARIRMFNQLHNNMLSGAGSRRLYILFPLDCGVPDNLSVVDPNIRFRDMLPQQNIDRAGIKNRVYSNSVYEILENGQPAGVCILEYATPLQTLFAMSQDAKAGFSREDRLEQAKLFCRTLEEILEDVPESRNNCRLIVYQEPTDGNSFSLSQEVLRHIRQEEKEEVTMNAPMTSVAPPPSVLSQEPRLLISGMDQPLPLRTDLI

Mus musculus [9] = test: Antiinflammatory activity against LPS-induced liver injury BALB/c mouse model assessed as reduction in AST level in serum at 1 to 9 mg/kg, ip pretreated with compound for 3 days followed by LPS-induction and measured after 12 hrs; type: functional, organism-based; details: dose 1-9 mg/kg, time 3.5 day
Mus musculus [10] = test: Antiinflammatory activity against LPS-induced liver injury BALB/c mouse model assessed as reduction in IFN-beta level in liver at 1 to 9 mg/kg, ip pretreated with compound for 3 days followed by LPS-induction and measured after 12 hrs; type: functional, organism-based; details: dose 1-9 mg/kg, time 3.5 day
Mus musculus [11] = test: In-vivo inhibition of STING/IRF3/NF-kappaB activation in liver septic mouse model assessed as reduction in STING level at 1 to 9 mg/kg, ip pretreated with compound for 3 days followed by LPS-induction and measured after 2 hrs by Western blotting analysis; type: functional, organism-based; details: dose 1-9 mg/kg, time 74.0 hrs
[12] = target: T1, Stimulator of interferon genes protein (Mus musculus); test: Activation of STING signaling pathway in mouse RAW264.7 cells assessed as inhibition of LPS-induced p65 phosphorylation at 2.5 to 10 uM pretreated with compound for 2 hrs followed by LPS-induction and measured after 6 hrs by Western blot analysis; type: cell-based; details: filed as activator, dose 2.5-10 µM, time 8.0 hrs
Mus musculus [13] = test: In-vivo inhibition of STING/IRF3/NF-kappaB activation in liver septic mouse model assessed as reduction in p65 phosphorylation at 1 to 9 mg/kg, ip pretreated with compound for 3 days followed by LPS-induction and measured after 2 hrs by Western blotting analysis; type: functional, organism-based; details: dose 1-9 mg/kg, time 74.0 hrs
Mus musculus [14] = test: Antiinflammatory activity against LPS-induced liver injury BALB/c mouse model assessed as reduction in ALT level in serum at 1 to 9 mg/kg, ip pretreated with compound for 3 days followed by LPS-induction and measured after 12 hrs; type: functional, organism-based; details: dose 1-9 mg/kg, time 3.5 day
[15] = target: T1, Stimulator of interferon genes protein (Mus musculus); test: Activation of STING signaling pathway in mouse RAW264.7 cells assessed as inhibition of LPS-induced TBK1 phosphorylation at 2.5 to 10 uM pretreated with compound for 2 hrs followed by LPS-induction and measured after 6 hrs by Western blot analysis; type: cell-based; details: filed as activator, dose 2.5-10 µM, time 8.0 hrs
[16] = target: T1, Stimulator of interferon genes protein (Mus musculus); test: Activation of STING signaling pathway in mouse RAW264.7 cells assessed as inhibition of LPS-induced IRF3 phosphorylation at 2.5 to 10 uM pretreated with compound for 2 hrs followed by LPS-induction and measured after 6 hrs by Western blot analysis; type: cell-based; details: filed as activator, dose 2.5-10 µM, time 8.0 hrs
Mus musculus [17] = test: Antiinflammatory activity against LPS-induced liver injury BALB/c mouse model assessed as reduction in hemorrhage severity at 1 to 9 mg/kg, ip pretreated with compound for 3 days followed by LPS-induction and measured after 12 hrs by H and E staining based analysis; type: functional, organism-based; details: dose 1-9 mg/kg, time 3.5 day
Mus musculus [18] = test: In-vivo inhibition of STING/IRF3/NF-kappaB activation in liver septic mouse model assessed as reduction in TBK phosphorylation at 1 to 9 mg/kg, ip pretreated with compound for 3 days followed by LPS-induction and measured after 2 hrs by Western blotting analysis; type: functional, organism-based; details: dose 1-9 mg/kg, time 74.0 hrs
RAW264.7 [19] = test: Antiinflammatory activity in mouse RAW264.7 cells assessed as inhibition of LPS-induced iNOS expression at 20 uM preincubated with compound for 2 hrs followed by LPS stimulation and measured after 6 hrs by ELISA analysis; type: functional, cell-based; details: time 8.0 hrs
RAW264.7 [20] = test: Antiinflammatory activity in mouse RAW264.7 cells assessed as reduction in LPS-induced IFN-beta level at 20 uM preincubated with compound for 2 hrs followed by LPS stimulation and measured after 6 hrs by ELISA analysis; type: functional, cell-based; details: time 8.0 hrs
[21] = target: T1, Stimulator of interferon genes protein (Mus musculus); test: Binding affinity to STING in mouse RAW264.7 cells assessed as thermal stabilization at 49 to 55 degree C at 5 to 50 uM measured for 12 hrs by cellular thermal shift assay; type: cell-based; details: filed as modulator, dose 5-50 µM
RAW264.7 [22] = test: Antiinflammatory activity in mouse RAW264.7 cells assessed as reduction in LPS-induced TNF-alpha level at 20 uM preincubated with compound for 2 hrs followed by LPS stimulation and measured after 6 hrs by ELISA analysis; type: functional, cell-based; details: time 8.0 hrs
RAW264.7 [23] = test: Antiinflammatory activity in mouse RAW264.7 cells assessed as reduction in LPS-induced IL-6 level at 20 uM preincubated with compound for 2 hrs followed by LPS stimulation and measured after 6 hrs by ELISA analysis; type: functional, cell-based; details: time 8.0 hrs

CC1(C)CC[C@]2(C(=O)OCc3ccccc3)CC[C@]3(C)C(=CC[C@@H]4[C@@]5(C)Cc6nccnc6[C@@](C)(COC(=O)CCC(=O)n6cccn6)[C@@H]5CC[C@]43C)[C@@H]2C1
Activity (RAW264.7 [1]): <90%

CC1(C)CC[C@]2(C(=O)OCc3ccccc3)CC[C@]3(C)C(=CC[C@@H]4[C@@]5(C)Cc6nccnc6[C@@](C)(COC(=O)CCC(=O)Nc6ncn[nH]6)[C@@H]5CC[C@]43C)[C@@H]2C1
Activity (RAW264.7 [1]): <90%

CCOC(=O)c1noc2c1C[C@@]1(C)[C@@H](CC[C@]3(C)[C@@H]1CC=C1[C@@H]4CC(C)(C)CC[C@]4(C(=O)OCc4ccccc4)CC[C@]13C)[C@]2(C)CO
Activity (RAW264.7 [1]): >90%

CCOC(=O)c1noc2c1C[C@@]1(C)[C@@H](CC[C@]3(C)[C@@H]1CC=C1[C@@H]4CC(C)(C)CC[C@]4(C(=O)OCc4ccccc4)CC[C@]13C)[C@]2(C)COC(=O)CCC(=O)O
Activity (RAW264.7 [1]): >90%

Cc1nc2c(s1)C[C@@]1(C)[C@@H](CC[C@]3(C)[C@@H]1CC=C1[C@@H]4CC(C)(C)CC[C@]4(C(=O)O)CC[C@]13C)[C@]2(C)CO
Activity (RAW264.7 [1]): >90%

CC1(C)CC[C@]2(C(=O)N3CCOCC3)CC[C@]3(C)C(=CC[C@@H]4[C@@]5(C)Cc6nccnc6[C@@](C)(CO)[C@@H]5CC[C@]43C)[C@@H]2C1
Activity (RAW264.7 [1]): >90% | Activity (RAW264.7 [2]): Active

CC1(C)CC[C@]2(C(=O)NC(Cc3ccccc3)C(=O)O)CC[C@]3(C)C(=CC[C@@H]4[C@@]5(C)Cc6nccnc6[C@@](C)(CO)[C@@H]5CC[C@]43C)[C@@H]2C1 (some centres not stated)
Activity (RAW264.7 [1]): >90% | Activity (RAW264.7 [2]): Active

CN1CCN(C(=O)CCC(=O)OC[C@]2(C)c3nccnc3C[C@@]3(C)[C@H]2CC[C@]2(C)[C@@H]3CC=C3[C@@H]4CC(C)(C)CC[C@]4(C(=O)OCc4ccccc4)CC[C@]32C)CC1
Activity (RAW264.7 [1]): <90%

O=C(Nc1ccc(I)cc1)c1ccc([N+](=O)[O-])o1
inhibition (Mus musculus [3]): Active | Activity (Mus musculus [4]): Active | Activity (Mus musculus [5]): Active | inhibition (Mus musculus [6]): Active | Activity (Mus musculus [7]): Active | Activity [8]: Active | Activity (Mus musculus [9]): Active | Activity (Mus musculus [10]): Active | inhibition (Mus musculus [11]): Active | Activity [12]: Active | inhibition (Mus musculus [13]): Active | Activity (Mus musculus [14]): Active | Activity [15]: Active | Activity [16]: Active | Activity (Mus musculus [17]): Active | inhibition (Mus musculus [18]): Active

CC1(C)CC[C@]2(C(=O)O)CC[C@]3(C)C(=CC[C@@H]4[C@@]5(C)Cc6nccnc6[C@@](C)(CO)[C@@H]5CC[C@]43C)[C@@H]2C1
Activity (RAW264.7 [19]): Active | inhibition (Mus musculus [3]): Active | Activity (Mus musculus [4]): Active | Activity (Mus musculus [5]): Active | inhibition (Mus musculus [6]): Active | Activity (Mus musculus [7]): Active | Activity (RAW264.7 [20]): Active | Activity [8]: Active | Activity (RAW264.7 [1]): >90% | Activity (Mus musculus [9]): Active | Activity (Mus musculus [10]): Active | inhibition (Mus musculus [11]): Active | Activity [12]: Active | Activity [21]: Active | Activity (RAW264.7 [22]): Active | Activity (RAW264.7 [2]): Active | inhibition (Mus musculus [13]): Active | Activity (Mus musculus [14]): Active | Activity [15]: Active | Activity [16]: Active | Activity (RAW264.7 [23]): Active | Activity (Mus musculus [17]): Active | inhibition (Mus musculus [18]): Active

CC(C)CC(NC(=O)[C@]12CCC(C)(C)C[C@H]1C1=CC[C@@H]3[C@@]4(C)Cc5nccnc5[C@@](C)(CO)[C@@H]4CC[C@@]3(C)[C@]1(C)CC2)C(=O)O (some centres not stated)
Activity (RAW264.7 [1]): >90%

CC1(C)CC[C@]2(C(=O)OCc3ccccc3)CC[C@]3(C)C(=CC[C@@H]4[C@@]5(C)Cc6nccnc6[C@@](C)(COC(=O)CCC(=O)N6CCCC6)[C@@H]5CC[C@]43C)[C@@H]2C1
Activity (RAW264.7 [1]): <90%

CC1(C)CC[C@]2(C(=O)OCc3ccccc3)CC[C@]3(C)C(=CC[C@@H]4[C@@]5(C)Cc6nccnc6[C@@](C)(COC(=O)CCC(=O)N6CCOCC6)[C@@H]5CC[C@]43C)[C@@H]2C1
Activity (RAW264.7 [1]): <90%

CC1(C)CC[C@]2(C(=O)OCc3ccccc3)CC[C@]3(C)C(=CC[C@@H]4[C@@]5(C)Cc6nccnc6[C@@](C)(COC(=O)CCC(=O)N6CCCCC6)[C@@H]5CC[C@]43C)[C@@H]2C1
Activity (RAW264.7 [1]): >90% | Activity (RAW264.7 [2]): Active

CC1(C)CC[C@]2(C(=O)OCc3ccccc3)CC[C@]3(C)C(=CC[C@@H]4[C@@]5(C)Cc6nccnc6[C@@](C)(COC(=O)CCC(=O)n6nnc7ccccc76)[C@@H]5CC[C@]43C)[C@@H]2C1
Activity (RAW264.7 [1]): <90%

CC1(C)CC[C@]2(C(=O)N3CCCC3C(=O)O)CC[C@]3(C)C(=CC[C@@H]4[C@@]5(C)Cc6nccnc6[C@@](C)(CO)[C@@H]5CC[C@]43C)[C@@H]2C1 (some centres not stated)
Activity (RAW264.7 [1]): >90% | Activity (RAW264.7 [2]): Active
